Assay results reported in publication PMC10408569, “Recruitment of hexahydroquinoline as anticancer scaffold targeting inhibition of wild and mutants EGFR (EGFR^WT, EGFR^T790M, and EGFR^L858R)” (Journal of Enzyme Inhibition and Medicinal Chemistry, 2023).

How the values were obtained:
CCRF-CEM = test: NCI-60 anticancer screening (SRB); type: cell-based; conditions: Homo sapiens, leukemia, one dose 10 μM, read-out: Growth Inhibition Percentage (GI %)
HL-60(TB) = test: NCI-60 anticancer screening (SRB); type: cell-based; conditions: Homo sapiens, leukemia, one dose 10 μM, read-out: Growth Inhibition Percentage (GI %)
K-562 = test: NCI-60 anticancer screening (SRB); type: cell-based; conditions: Homo sapiens, K562; K-562, leukemia; one dose 10 μM; read-out: Growth Inhibition Percentage (GI %)
SR = test: NCI-60 anticancer screening (SRB); type: cell-based; conditions: Homo sapiens, leukemia, one dose 10 μM, read-out: Growth Inhibition Percentage (GI %)
NCI-H226 = test: NCI-60 anticancer screening (SRB); type: cell-based; conditions: Homo sapiens; NCI-H226, NSC lung cancer; one dose 10 μM; read-out: Growth Inhibition Percentage (GI %)
NCI-H322M = test: NCI-60 anticancer screening (SRB); type: cell-based; conditions: Homo sapiens, NSC lung cancer, one dose 10 μM, read-out: Growth Inhibition Percentage (GI %)
COLO 205 = test: NCI-60 anticancer screening (SRB); type: cell-based; conditions: Homo sapiens; COLO 205, colon cancer; one dose 10 μM; read-out: Growth Inhibition Percentage (GI %)
HCT-116 = test: NCI-60 anticancer screening (SRB); type: cell-based; conditions: Homo sapiens; HCT-116, colon cancer; one dose 10 μM; read-out: Growth Inhibition Percentage (GI %)
HCT-15 = test: NCI-60 anticancer screening (SRB); type: cell-based; conditions: Homo sapiens; HCT-15, colon cancer; one dose 10 μM; read-out: Growth Inhibition Percentage (GI %)
KM 12 = test: NCI-60 anticancer screening (SRB); type: cell-based; conditions: Homo sapiens, KM12; KM 12, colon cancer; one dose 10 μM; read-out: Growth Inhibition Percentage (GI %)
SW-620 = test: NCI-60 anticancer screening (SRB); type: cell-based; conditions: Homo sapiens; SW-620, colon cancer; one dose 10 μM; read-out: Growth Inhibition Percentage (GI %)
SF-268 = test: NCI-60 anticancer screening (SRB); type: cell-based; conditions: Homo sapiens; SF-268, CNS cancer; one dose 10 μM; read-out: Growth Inhibition Percentage (GI %)
SNB-75 = test: NCI-60 anticancer screening (SRB); type: cell-based; conditions: Homo sapiens; SNB-75, CNS cancer; one dose 10 μM; read-out: Growth Inhibition Percentage (GI %)
U251 = test: NCI-60 anticancer screening (SRB); type: cell-based; conditions: Homo sapiens, U-251; U251, CNS cancer; one dose 10 μM; read-out: Growth Inhibition Percentage (GI %)
LOX IMVI = test: NCI-60 anticancer screening (SRB); type: cell-based; conditions: Homo sapiens, melanoma, one dose 10 μM, read-out: Growth Inhibition Percentage (GI %)
M14 = test: NCI-60 anticancer screening (SRB); type: cell-based; conditions: Homo sapiens; M14, melanoma; one dose 10 μM; read-out: Growth Inhibition Percentage (GI %)
SK-MEL-2 = test: NCI-60 anticancer screening (SRB); type: cell-based; conditions: Homo sapiens; SK-MEL-2, melanoma; one dose 10 μM; read-out: Growth Inhibition Percentage (GI %)
UACC-257 = test: NCI-60 anticancer screening (SRB); type: cell-based; conditions: Homo sapiens; UACC-257, melanoma; one dose 10 μM; read-out: Growth Inhibition Percentage (GI %)
IGROV1 = test: NCI-60 anticancer screening (SRB); type: cell-based; conditions: Homo sapiens, IGROV-1; IGROV1, ovarian cancer; one dose 10 μM; read-out: Growth Inhibition Percentage (GI %)
OVCAR-5 = test: NCI-60 anticancer screening (SRB); type: cell-based; conditions: Homo sapiens; OVCAR-5, ovarian cancer; one dose 10 μM; read-out: Growth Inhibition Percentage (GI %)
NCI/ADR-RES = test: NCI-60 anticancer screening (SRB); type: cell-based; conditions: Homo sapiens, ovarian cancer, one dose 10 μM, read-out: Growth Inhibition Percentage (GI %)
SK-OV-3 = test: NCI-60 anticancer screening (SRB); type: cell-based; conditions: Homo sapiens; SK-OV-3, ovarian cancer; one dose 10 μM; read-out: Growth Inhibition Percentage (GI %)
786-0 = test: NCI-60 anticancer screening (SRB); type: cell-based; conditions: Homo sapiens; 786-0, renal cancer; one dose 10 μM; read-out: Growth Inhibition Percentage (GI %)
A498 = test: NCI-60 anticancer screening (SRB); type: cell-based; conditions: Homo sapiens; A498, renal cancer; one dose 10 μM; read-out: Growth Inhibition Percentage (GI %)
RXF 393 = test: NCI-60 anticancer screening (SRB); type: cell-based; conditions: Homo sapiens; RXF 393, renal cancer; one dose 10 μM; read-out: Growth Inhibition Percentage (GI %)
TK-10 = test: NCI-60 anticancer screening (SRB); type: cell-based; conditions: Homo sapiens; TK-10, renal cancer; one dose 10 μM; read-out: Growth Inhibition Percentage (GI %)
PC-3 = test: NCI-60 anticancer screening (SRB); type: cell-based; conditions: Homo sapiens; PC-3, prostate cancer; one dose 10 μM; read-out: Growth Inhibition Percentage (GI %)
MCF7 = test: NCI-60 anticancer screening (SRB); type: cell-based; conditions: Homo sapiens; MCF7, breast cancer; one dose 10 μM; read-out: Growth Inhibition Percentage (GI %)
MDA-MB-231 = test: NCI-60 anticancer screening (SRB); type: cell-based; conditions: Homo sapiens; MDA-MB-231, breast cancer; one dose 10 μM; read-out: Growth Inhibition Percentage (GI %)
BT-549 = test: NCI-60 anticancer screening (SRB); type: cell-based; conditions: Homo sapiens; BT-549, breast cancer; one dose 10 μM; read-out: Growth Inhibition Percentage (GI %)
T-47D = test: NCI-60 anticancer screening (SRB); type: cell-based; conditions: Homo sapiens, T47D, breast cancer, one dose 10 μM, read-out: Growth Inhibition Percentage (GI %)
MDA-MB-468 = test: NCI-60 anticancer screening (SRB); type: cell-based; conditions: Homo sapiens; MDA-MB-468, breast cancer; one dose 10 μM; read-out: Growth Inhibition Percentage (GI %)
NCI 60 cancer cell lines = test: NCI-60 anticancer screening (SRB), whole panel; type: cell-based, human; conditions: mean across the NCI-60 panel; one dose 10 μM

SMILES	inhibition at 10 µM (CCRF-CEM)	inhibition at 10 µM (HL-60(TB))	inhibition at 10 µM (K-562)	inhibition at 10 µM (SR)	inhibition at 10 µM (NCI-H226)	inhibition at 10 µM (NCI-H322M)	inhibition at 10 µM (COLO 205)	inhibition at 10 µM (HCT-116)	inhibition at 10 µM (HCT-15)	inhibition at 10 µM (KM 12)	inhibition at 10 µM (SW-620)	inhibition at 10 µM (SF-268)	inhibition at 10 µM (SNB-75)	inhibition at 10 µM (U251)	inhibition at 10 µM (LOX IMVI)	inhibition at 10 µM (M14)	inhibition at 10 µM (SK-MEL-2)	inhibition at 10 µM (UACC-257)	inhibition at 10 µM (IGROV1)	inhibition at 10 µM (OVCAR-5)	further results
CCOC(=O)C1=C(N)N(c2ccc(Cl)cc2)C2=C(C(=O)CC(C)(C)C2)C1c1ccccc1OC (racemic) [6i, (±)-Ethyl 2-amino-1–(4-chlorophenyl)-4–(2-methoxyphenyl)-7,7-dimethyl-5-oxo-1,4,5,6,7,8-hexahydroquinoline-3-carboxylate]	56%	69%	66%	64%	30%	15%	50%	65%	59%	54%	23%	27%	18%	28%	37%	49%	15%	44%	27%	15%	inhibition at 10 µM (NCI/ADR-RES): 40%; inhibition at 10 µM (SK-OV-3): < 10%; inhibition at 10 µM (786-0): < 10%; inhibition at 10 µM (A498): < 10%; inhibition at 10 µM (RXF 393): < 10%; inhibition at 10 µM (TK-10): < 10%; inhibition at 10 µM (PC-3): 68%; inhibition at 10 µM (MCF7): 65%; inhibition at 10 µM (MDA-MB-231): 31%; inhibition at 10 µM (BT-549): 20%; inhibition at 10 µM (T-47D): 40%; inhibition at 10 µM (MDA-MB-468): 39%; GI % mean (NCI 60 cancer cell lines): 36%
CCOC(=O)C1=C(N)N(c2ccc(Cl)cc2)C2=C(C(=O)CC(C)(C)C2)C1c1ccc(F)cc1 (racemic) [8b, (±)-Ethyl 2-amino-1–(4-chlorophenyl)-4–(4-fluoroyphenyl)-7,7-dimethyl-5-oxo-1,4,5,6,7,8-hexahydroquinoline-3-carboxylate]	26%	32%	< 10%	< 10%	< 10%	< 10%	13%	34%	34%	< 10%	< 10%	< 10%	< 10%	21%	14%	14%	20%	11%	< 10%	< 10%	inhibition at 10 µM (NCI/ADR-RES): 12%; inhibition at 10 µM (SK-OV-3): < 10%; inhibition at 10 µM (786-0): 20%; inhibition at 10 µM (A498): < 10%; inhibition at 10 µM (RXF 393): 17%; inhibition at 10 µM (TK-10): < 10%; inhibition at 10 µM (PC-3): 35%; inhibition at 10 µM (MCF7): 25%; inhibition at 10 µM (MDA-MB-231): 19%; inhibition at 10 µM (BT-549): 13%; inhibition at 10 µM (T-47D): 27%; inhibition at 10 µM (MDA-MB-468): 17%; GI % mean (NCI 60 cancer cell lines): 14%
CCOC(=O)C1=C(N)N(c2ccccc2)C2=C(C(=O)CC(C)(C)C2)C1c1ccc(Cl)cc1 (racemic) [8c, (±)-Ethyl 2-amino-4–(4-chlorophenyl)-7,7-dimethyl-5-oxo-1-phenyl-1,4,5,6,7,8-hexahydroquinoline-3-carboxylate]	85%	94%	82%	87%	30%	35%	118%	81%	85%	82%	72%	42%	27%	58%	59%	72%	70%	72%	40%	42%	inhibition at 10 µM (NCI/ADR-RES): 74%; inhibition at 10 µM (SK-OV-3): 56%; inhibition at 10 µM (786-0): 33%; inhibition at 10 µM (A498): 33%; inhibition at 10 µM (RXF 393): < 10%; inhibition at 10 µM (TK-10): 20%; inhibition at 10 µM (PC-3): 78%; inhibition at 10 µM (MCF7): 83%; inhibition at 10 µM (MDA-MB-231): 47%; inhibition at 10 µM (BT-549): 57%; inhibition at 10 µM (T-47D): 70%; inhibition at 10 µM (MDA-MB-468): 67%; GI % mean (NCI 60 cancer cell lines): 63%
